Assay results published in the NIST ThermoML archive (doi:10.1021/je100851w).

Test: xn = mol fraction of the nth substance listed
Conditions: Vibrating tube method

S [hydrogen sulfide] + CCC
Conditions	mass density [kg/m3]
263.11 K, 8 kPa, Gas, x1 = 0.2227	0.1
263.11 K, 159 kPa, Gas, x1 = 0.2227	3.1
263.11 K, 298 kPa, Gas, x1 = 0.2227	6.1
263.11 K, 438 kPa, Gas, x1 = 0.2227	9.1
263.11 K, 707 kPa, Liquid, x1 = 0.2227	571.2
263.11 K, 2357 kPa, Liquid, x1 = 0.2227	574.3
263.11 K, 4057 kPa, Liquid, x1 = 0.2227	577.3
263.11 K, 5814 kPa, Liquid, x1 = 0.2227	580.3
263.11 K, 7697 kPa, Liquid, x1 = 0.2227	583.3
263.11 K, 9735 kPa, Liquid, x1 = 0.2227	586.4
263.11 K, 11879 kPa, Liquid, x1 = 0.2227	589.5
263.11 K, 14087 kPa, Liquid, x1 = 0.2227	592.6
263.11 K, 16300 kPa, Liquid, x1 = 0.2227	595.6
263.11 K, 18708 kPa, Liquid, x1 = 0.2227	598.6
263.11 K, 21118 kPa, Liquid, x1 = 0.2227	601.6
263.11 K, 23736 kPa, Liquid, x1 = 0.2227	604.6
263.11 K, 26466 kPa, Liquid, x1 = 0.2227	607.7
263.11 K, 29282 kPa, Liquid, x1 = 0.2227	610.8
263.11 K, 32290 kPa, Liquid, x1 = 0.2227	613.9
263.11 K, 35311 kPa, Liquid, x1 = 0.2227	616.9
263.11 K, 38486 kPa, Liquid, x1 = 0.2227	620
263.11 K, 41881 kPa, Liquid, x1 = 0.2227	623.1
268.09 K, 9 kPa, Gas, x1 = 0.2691	0.2
268.09 K, 180 kPa, Gas, x1 = 0.2691	3.5
268.09 K, 335 kPa, Gas, x1 = 0.2691	6.7
268.09 K, 476 kPa, Gas, x1 = 0.2691	9.7
268.09 K, 818 kPa, Liquid, x1 = 0.2691	570
268.09 K, 2369 kPa, Liquid, x1 = 0.2691	573.1
268.09 K, 3999 kPa, Liquid, x1 = 0.2691	576.3
268.09 K, 5608 kPa, Liquid, x1 = 0.2691	579.3
268.09 K, 7451 kPa, Liquid, x1 = 0.2691	582.5
268.09 K, 9258 kPa, Liquid, x1 = 0.2691	585.5
268.09 K, 11262 kPa, Liquid, x1 = 0.2691	588.7
268.09 K, 13236 kPa, Liquid, x1 = 0.2691	591.8
268.09 K, 15455 kPa, Liquid, x1 = 0.2691	595
268.09 K, 17739 kPa, Liquid, x1 = 0.2691	598.2
268.09 K, 20006 kPa, Liquid, x1 = 0.2691	601.2
268.09 K, 22487 kPa, Liquid, x1 = 0.2691	604.4
268.09 K, 24903 kPa, Liquid, x1 = 0.2691	607.4
268.09 K, 27518 kPa, Liquid, x1 = 0.2691	610.5
268.09 K, 30199 kPa, Liquid, x1 = 0.2691	613.6
268.09 K, 33045 kPa, Liquid, x1 = 0.2691	616.7
268.09 K, 36027 kPa, Liquid, x1 = 0.2691	619.8
268.09 K, 39139 kPa, Liquid, x1 = 0.2691	622.9
293.28 K, 14 kPa, Gas, x1 = 0.2227	0.2
293.28 K, 186 kPa, Gas, x1 = 0.2227	3.3
293.28 K, 350 kPa, Gas, x1 = 0.2227	6.3
293.28 K, 509 kPa, Gas, x1 = 0.2227	9.4
293.28 K, 665 kPa, Gas, x1 = 0.2227	12.6
293.28 K, 804 kPa, Gas, x1 = 0.2227	15.6
293.28 K, 932 kPa, Gas, x1 = 0.2227	18.7
293.28 K, 1050 kPa, Gas, x1 = 0.2227	21.9
293.28 K, 3770 kPa, Liquid, x1 = 0.2227	518.4
293.28 K, 4686 kPa, Liquid, x1 = 0.2227	521.6
293.28 K, 5576 kPa, Liquid, x1 = 0.2227	524.8
293.28 K, 6556 kPa, Liquid, x1 = 0.2227	527.8
293.28 K, 7610 kPa, Liquid, x1 = 0.2227	530.9
293.28 K, 8755 kPa, Liquid, x1 = 0.2227	534.1
293.28 K, 9941 kPa, Liquid, x1 = 0.2227	537.3
293.28 K, 11195 kPa, Liquid, x1 = 0.2227	540.5
293.28 K, 12466 kPa, Liquid, x1 = 0.2227	543.5
293.28 K, 13825 kPa, Liquid, x1 = 0.2227	546.6
293.28 K, 15156 kPa, Liquid, x1 = 0.2227	549.6
